Reference: patent publication US10597388B2, “Pyridazinone herbicides” (FMC CORPORATION, priority 2014, dated 2020)

Tests used:
Assay type in all cases: in vivo
[1] = tested on: chickweed (common chickweed, Stellaria media); test: Test C greenhouse herbicide test, postemergence
Summary of the method: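 Greenhouse postemergence spray on plants 2–18 cm tall; response judged visually after 13–15 d relative to untreated controls using a 0 (none) to 100 (full control) scale.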

[2] = tested on: waterhemp_RES1 (ALS & Triazine resistant common waterhemp, Amaranthus rudis); test: Test E greenhouse herbicide test, postemergence
Summary of the method: (§1)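 Formulated compounds are applied postemergence to potted waterhemp at 1–4 leaves (2–18 cm high). Plants stay in the greenhouse for 14 to 21 d before visual comparison with controls, and control is scored from 0 (none) to 100 (complete).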

[3] = tested on: waterhemp_RES2 (ALS & HPPD resistant common waterhemp, Amaranthus rudis); test: Test E greenhouse herbicide test, postemergence
Summary of the method: as §1

[4] = tested on: ducksalad (Heteranthera limosa); test: Test B flooded paddy test; conditions: 250 g ai/ha, Flood, visual rating on scale of 0 to 100 where 0 is no effect and 100 is complete control, 13 to 15 d after treatment
Summary of the method: (§2)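 Ratings use a 0-100 visual scale, where 100 is complete control, and compare treated plants with controls after 13 to 15 d of greenhouse growth. Compound went straight into paddy water kept 3 cm over the soil surface, applied to seedlings at the 2-leaf stage.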

rice (Oryza sativa) = test: Test B flooded paddy test; conditions: 250 g ai/ha, Flood, visual rating on scale of 0 to 100 where 0 is no effect and 100 is complete control, 13 to 15 d after treatment
Summary of the method: as §2

[5] = tested on: barnyardgrass (Echinochloa crus-galli); test: Test B flooded paddy test; conditions: 250 g ai/ha, Flood, visual rating on scale of 0 to 100 where 0 is no effect and 100 is complete control, 13 to 15 d after treatment
Summary of the method: as §2

[6] = tested on: sedge, umbrella (small-flower umbrella sedge, Cyperus difformis); test: Test B flooded paddy test; conditions: 250 g ai/ha, Flood, visual rating on scale of 0 to 100 where 0 is no effect and 100 is complete control, 13 to 15 d after treatment
Summary of the method: as §2

soybean (Glycine max) = test: Test C greenhouse herbicide test, pre- and postemergence
Summary of the method: (§3)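 Visual 0–100 injury score (100 = complete control) taken against untreated controls after 13–15 d in greenhouse. Test chemicals, formulated in solvent plus surfactant, applied preemergence to seeds in loam–sand soil or postemergence to 1- to 4-leaf plants (2–18 cm).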

[7] = tested on: wheat (winter wheat, Triticum aestivum); test: as above
Summary of the method: as §3

[8] = Postemergence, 31 g ai/ha, 0 to 100 scale (0 no effect, 100 complete control)
[9] = Postemergence, 125 g ai/ha, scale 0 to 100, 0 is no effect, 100 is complete control
[10] = Postemergence, 250 g ai/ha, scale 0 to 100, 0 no effect, 100 complete control, 13 to 15 d
[11] = postemergence, 62 g ai/ha, scale 0 to 100, 0 no effect, 100 complete control
[12] = 16 g ai/ha, visual, scale 0 no effect to 100 complete control
[13] = 31 g ai/ha, visual, scale 0 no effect to 100 complete control
[14] = 62 g ai/ha, scale 0 to 100 (0 no effect, 100 complete control)
[15] = 125 g ai/ha, scale 0 to 100 (0 no effect, 100 complete control)
[16] = 250 g ai/ha, scale 0 to 100 (0 no effect, 100 complete control)
[17] = Preemergence, 62 g ai/ha, scale 0 to 100, 0 is no effect, 100 is complete control
[18] = Preemergence, 125 g ai/ha, scale 0 to 100, 0 is no effect, 100 is complete control
[19] = Preemergence, 250 g ai/ha, scale 0 to 100 (0 no effect, 100 complete control)
[20] = Preemergence, 31 g ai/ha, scale 0 to 100, 0 is no effect, 100 is complete control

Compound	Chickweed plant response rating [1, 8]	Plant response rating, Chickweed [1, 9]	Plant response rating, Chickweed [1, 10]	Chickweed plant response rating [1, 11]	Plant response rating, Waterhemp_RES1 [2, 15]	Plant response rating, Waterhemp_RES1 [2, 16]	Plant response rating, Waterhemp_RES2 [3, 15]	Plant response rating, Waterhemp_RES2 [3, 16]	Plant response rating, Soybean (soybean (Glycine max); [9])	Plant response rating, Soybean (soybean (Glycine max); [10])	Plant response rating, Soybean (soybean (Glycine max); [17])	Plant response rating, Soybean (soybean (Glycine max); [18])	Soybean plant response rating (soybean (Glycine max); [19])	Soybean plant response rating (soybean (Glycine max); [11])	Plant response rating, Wheat [7, 9]	Plant response rating, Wheat [7, 10]	Plant response rating, Wheat [7, 17]	Plant response rating, Wheat [7, 18]	Wheat plant response rating [7, 19]	Wheat plant response rating [7, 11]	further results
Cc1ccc2sc(C)c(-c3c(O)c(C)nn(C)c3=O)c2c1 [Compound 1, 4-(2,5-dimethylbenzo[b]thien-3-yl)-5-hydroxy-2,6-dimethyl-3(2H)-pyridazinone]	95	98	100	95	98	100	70	75	5	5	0	0	0	0	10	15	0	5	20	0	Plant response rating, Waterhemp_RES1 [2, 12]: 75; Plant response rating, Waterhemp_RES1 [2, 13]: 80; Plant response rating, Waterhemp_RES1 [2, 14]: 90; Plant response rating, Waterhemp_RES2 [3, 12]: 0; Plant response rating, Waterhemp_RES2 [3, 13]: 75; Plant response rating, Waterhemp_RES2 [3, 14]: 70; pest or weed control at 250 g/ha ([4]; Heteranthera limosa, 360 h, read-out: Plant response rating, Ducksalad): 20%; plant injury at 250 g/ha (rice (Oryza sativa); Oryza sativa, 360 h, read-out: Plant response rating, Rice): 0%; pest or weed control at 250 g/ha ([5]; Echinochloa crus-galli, 360 h, read-out: Plant response rating, Barnyardgrass): 0%; pest or weed control at 250 g/ha ([6]; Cyperus difformis, 360 h, read-out: Plant response rating, Sedge, Umbrella): 0%; Soybean plant response rating (soybean (Glycine max); [8]): 0; Wheat plant response rating [7, 8]: 0
CCOC(=O)Oc1c(C)nn(C)c(=O)c1-c1c(C)sc2ccc(C)cc12 [Compound 82]	90	90	98	90	85	95	60	60	5	10	100	0	0	10	5	5	0	0	0	0	Plant response rating, Waterhemp_RES1 [2, 13]: 60; Plant response rating, Waterhemp_RES2 [3, 13]: 50; Plant response rating, Ducksalad [4]: 0; Plant response rating, Rice (rice (Oryza sativa)): 0; Plant response rating, Barnyardgrass [5]: 0; Plant response rating, Sedge, Umbrella [6]: 0; Plant response rating, Soybean (soybean (Glycine max); [20]): 0; Plant response rating, Wheat [7, 20]: 0
COC(=O)Oc1c(C)nn(C)c(=O)c1-c1c(C)sc2c(C)cc(C)cc12 [Compound 81]	90	95	95	90	60	65	50	50	5	0	100	0	0	0	0	0	0	0	0	0	Plant response rating, Waterhemp_RES1 [2, 13]: 50; Plant response rating, Waterhemp_RES2 [3, 13]: 10; Plant response rating, Ducksalad [4]: 70; Plant response rating, Rice (rice (Oryza sativa)): 60; Plant response rating, Barnyardgrass [5]: 60; Plant response rating, Sedge, Umbrella [6]: 80; Plant response rating, Soybean (soybean (Glycine max); [20]): 0; Plant response rating, Wheat [7, 20]: 0
CCC(=O)Oc1c(C)nn(C)c(=O)c1-c1c(C)sc2c(C)cc(C)cc12 [Compound 28]	95	98	95	95	60	80	50	50	0	5	25	0	50	0	0	5	0	0	10	0	Plant response rating, Ducksalad [4]: 80; Plant response rating, Rice (rice (Oryza sativa)): 40; Plant response rating, Barnyardgrass [5]: 60; Plant response rating, Sedge, Umbrella [6]: 95; Soybean plant response rating (soybean (Glycine max); [8]): 0; Wheat plant response rating [7, 8]: 0
